Reference: US20260295053A1, “COMPOUNDS FOR DEGRADATION AND INHIBITION OF KRAS (G12D) PROTEIN” (Shenzhen Ionova Life Science Co., Ltd., priority 2023, published 2026)

Assays:
KRAS (G12D) = target: T1, KRAS (G12D) (Homo sapiens, UniProt P01116, G12D); assay: KRAS (G12D) cellular degradation assay in AsPC-1 cells; assay type: cell-based; settings: 24 hours, antibody fluorescence (Odyssey CLX), DC50 half-maximal degradation concentration
T1 construct: in-cell western with KRAS G12D antibody after 24 h
How it was run: (§1)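 Read-outs were KRAS G12D immunofluorescence against β-actin after 24 h (DC50) and CellTiter Glo luminescence after 6 days (IC50). Compounds were titrated 1:3 from […] to 1.5 nM final on AsPC-1 cells at 37 °C, 5% CO2.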

AsPC-1 cells = assay: AsPC-1 cell proliferation assay (CellTiter Glo); assay type: cell-based; settings: 6 days
How it was run: as §1

T1 sequence (P01116 1-188 isoform P01116-2 G12D): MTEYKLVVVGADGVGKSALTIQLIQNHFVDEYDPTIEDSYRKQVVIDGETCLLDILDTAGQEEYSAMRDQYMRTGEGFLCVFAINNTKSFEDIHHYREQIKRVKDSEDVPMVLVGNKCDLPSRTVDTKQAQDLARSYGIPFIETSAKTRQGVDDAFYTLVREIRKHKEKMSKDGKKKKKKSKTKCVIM

| DC50 (KRAS (G12D)) [nM] | IC50 (AsPC-1 cells; Homo sapiens, ASPC1, 144 h) [nM] | IC50 (AsPC-1 cells) [nM] | Structure (SMILES) |
| --- | --- | --- | --- |
| < 10 | < 10 | – | CCn1nccc1-c1ccc([C@H](CO)NC(=O)[C@@H]2C[C@@H](O)CN2C(=O)[C@H](C(C)C)n2cc(-c3ccc(COc4c(-c5c(C)c(F)c(C)c6[nH]ncc56)c(C5CC5)cc5c(N6C[C@@H]7C[C@H]6CN7)nc(OC[C@H](C)OC)nc45)cc3)nn2)cc1 [Example 66, (2S,4R)-1-((2S)-2-(4-(4-(((4-((1S,4S)-2,5-diazabicyclo[2.2.1]heptan-2-yl)-6-cyclopropyl-7-(6-fluoro-5,7-dimethyl-1H-indazol-4-yl)-2-((S)-2-methoxypropoxy)quinazolin-8-yl)oxy)methyl)phenyl)-1H-1,2,3-triazol-1-yl)-3-methylbutanoyl)-N—((R)-1-(4-(1-ethyl-1H-pyrazol-5-yl)phenyl)-2-hydroxyethyl)-4-hydroxypyrrolidine-2-carboxamide] |
| < 10 | < 10 | – | CCn1nccc1-c1ccc([C@@H](NC(=O)[C@@H]2C[C@@H](O)CN2C(=O)[C@H](C(C)C)n2cc(-c3ccc(COc4c(-c5c(C)c(F)cc6[nH]ncc56)c(C5CC5)cc5c(N6C[C@@H]7C[C@H]6CN7)nc(O[C@H]6CC[C@H](OC)C6)nc45)cc3)nn2)[C@H](C)O)cc1 [Example 151, (2S,4R)-1-((2S)-2-(4-(4-(((4-((1S,4S)-2,5-diazabicyclo[2.2.1]heptan-2-yl)-6-cyclopropyl-7-(6-fluoro-5-methyl-1H-indazol-4-yl)-2-(((1S,3S)-3-methoxycyclopentyl)oxy)quinazolin-8-yl)oxy)methyl)phenyl)-1H-1,2,3-triazol-1-yl)-3-methylbutanoyl)-N-((1R,2S)-1-(4-(1-ethyl-1H-pyrazol-5-yl)phenyl)-2-hydroxypropyl)-4-hydroxypyrrolidine-2-carboxamide] |
| < 10 | < 10 | – | CO[C@@H](C)COc1nc(N2C[C@@H]3C[C@H]2CN3)c2cc(C3CC3)c(-c3c(C)c(F)cc4[nH]ncc34)c(OCc3ccc(-c4cn([C@H](C(=O)N5C[C@H](O)C[C@H]5C(=O)N[C@H](C#Cc5cccc6[nH]ncc56)CO)C(C)C)nn4)cc3)c2n1 [Example 133, (2S,4R)-1-((2S)-2-(4-(4-(((4-((1S,4S)-2,5-diazabicyclo[2.2.1]heptan-2-yl)-6-cyclopropyl-7-(6-fluoro-5-methyl-1H-indazol-4-yl)-2-((S)-2-methoxypropoxy)quinazolin-8-yl)oxy)methyl)phenyl)-1H-1,2,3-triazol-1-yl)-3-methylbutanoyl)-4-hydroxy-N—((R)-1-hydroxy-4-(1H-indazol-4-yl)but-3-yn-2-yl)pyrrolidine-2-carboxamide] |
| < 10 | < 10 | – | CCn1nccc1-c1ccc([C@H](CO)NC(=O)[C@@H]2C[C@@H](O)CN2C(=O)[C@H](C(C)C)n2cc(-c3ccc(COc4c(-c5c(C)c(F)cc6[nH]ncc56)c(C(F)(F)F)cc5c(N6C[C@@H]7C[C@H]6CN7)nc(OC[C@H](C)OC)nc45)cc3)nn2)cc1 [Example 30, (2S,4R)-1-((2S)-2-(4-(4-(((4-((1S,4S)-2,5-diazabicyclo[2.2.1]heptan-2-yl)-7-(6-fluoro-5-methyl-1H-indazol-4-yl)-2-((S)-2-methoxypropoxy)-6-(trifluoromethyl)quinazolin-8-yl)oxy)methyl)phenyl)-1H-1,2,3-triazol-1-yl)-3-methylbutanoyl)-N—((R)-1-(4-(1-ethyl-1H-pyrazol-5-yl)phenyl)-2-hydroxyethyl)-4-hydroxypyrrolidine-2-carboxamide] |
| 10 to 100 | < 10 | – | CCc1ncccc1C#C[C@H](CO)NC(=O)[C@@H]1C[C@@H](O)CN1C(=O)[C@H](C(C)C)n1cc(-c2ccc(COc3c(-c4c(C)c(F)cc5[nH]ncc45)c(C4CC4)cc4c(N5C[C@@H]6C[C@H]5CN6)nc(OC[C@H](C)OC)nc34)cc2)nn1 [Example 46, (2S,4R)-1-((2S)-2-(4-(4-(((4-((1S,4S)-2,5-diazabicyclo[2.2.1]heptan-2-yl)-6-cyclopropyl-7-(6-fluoro-5-methyl-1H-indazol-4-yl)-2-((S)-2-methoxypropoxy)quinazolin-8-yl)oxy)methyl)phenyl)-1H-1,2,3-triazol-1-yl)-3-methylbutanoyl)-N—((R)-4-(2-ethylpyridin-3-yl)-1-hydroxybut-3-yn-2-yl)-4-hydroxypyrrolidine-2-carboxamide] |
| 10 to 100 | 10 to 100 | – | CCn1nccc1-c1ccc([C@H](CO)NC(=O)[C@@H]2C[C@@H](O)CN2C(=O)[C@H](C(C)C)n2cc(-c3ccc(COc4c(-c5c(C)c(F)cc6[nH]ncc56)c(C5CC5)cc5c(N6C[C@@H]7C[C@H]6CN7)nc(OC[C@H](C)OC)nc45)cc3OC)nn2)cc1 [Example 45, (2S,4R)-1-((2S)-2-(4-(4-(((4-((1S,4S)-2,5-diazabicyclo[2.2.1]heptan-2-yl)-6-cyclopropyl-7-(6-fluoro-5-methyl-1H-indazol-4-yl)-2-((S)-2-methoxypropoxy)quinazolin-8-yl)oxy)methyl)-2-methoxyphenyl)-1H-1,2,3-triazol-1-yl)-3-methylbutanoyl)-N—((R)-1-(4-(1-ethyl-1H-pyrazol-5-yl)phenyl)-2-hydroxyethyl)-4-hydroxypyrrolidine-2-carboxamide] |
| < 10 | < 10 | – | CNc1nc2ccc(C#C[C@H](CO)NC(=O)[C@@H]3C[C@@H](O)CN3C(=O)[C@H](C(C)C)n3cc(-c4ccc(COc5c(-c6c(C)c(F)cc7[nH]ncc67)c(C6CC6)cc6c(N7C[C@@H]8C[C@H]7CN8)nc(OC[C@H](C)OC)nc56)cc4)nn3)cc2s1 [Example 176, (2S,4R)-1-((2S)-2-(4-(4-(((4-((1S,4S)-2,5-diazabicyclo[2.2.1]heptan-2-yl)-6-cyclopropyl-7-(6-fluoro-5-methyl-1H-indazol-4-yl)-2-((S)-2-methoxypropoxy)quinazolin-8-yl)oxy)methyl)phenyl)-1H-1,2,3-triazol-1-yl)-3-methylbutanoyl)-4-hydroxy-N—((R)-1-hydroxy-4-(2-(methylamino)benzo[d]thiazol-6-yl)but-3-yn-2-yl)pyrrolidine-2-carboxamide] |
| < 10 | – | 10 to 100 | CCn1nccc1-c1ccc([C@H](C)NC(=O)[C@@H]2C[C@@H](O)CN2C(=O)[C@H](C(C)C)n2cc(-c3ccc(COc4c(-c5c(C)c(F)cc6[nH]ncc56)c(C5CC5)cc5c(N6C[C@H]7C[C@@H]6CN7)nc(OC[C@H](C)OC)nc45)cc3)nn2)cc1 (single isomer, unassigned) [Example 4A] |

| Structure (SMILES) | DC50 (KRAS (G12D)) [nM] | IC50 (AsPC-1 cells; Homo sapiens, ASPC1, 144 h) [nM] | IC50 (AsPC-1 cells) [nM] |
| --- | --- | --- | --- |
| CCn1nccc1-c1ccc([C@@H](NC(=O)[C@@H]2C[C@@H](O)CN2C(=O)[C@H](C(C)C)n2cc(-c3ccc(COc4c(-c5c(C)c(F)cc6[nH]ncc56)c(C5CC5)cc5c(N(C)[C@H]6CCNC6)nc(O[C@H]6C[C@H](OC)C6)nc45)cc3)nn2)[C@H](C)O)c2c1CC2 [Example 173, (2S,4R)-1-((2S)-2-(4-(4-(((6-cyclopropyl-7-(6-fluoro-5-methyl-1H-indazol-4-yl)-2-((1r,3S)-3-methoxycyclobutoxy)-4-(methyl((S)-pyrrolidin-3-yl)amino)quinazolin-8-yl)oxy)methyl)phenyl)-1H-1,2,3-triazol-1-yl)-3-methylbutanoyl)-N-((1R,2S)-1-(5-(1-ethyl-1H-pyrazol-5-yl)bicyclo[4.2.0]octa-1(6),2,4-trien-2-yl)-2-hydroxypropyl)-4-hydroxypyrrolidine-2-carboxamide] | < 10 | < 10 | – |
